Test results as given in patent US10736831B2, “Oral care compositions” (Colgate-Palmolive Company, priority 2015, dated 2020).

Test system: five species mix of representative oral bacterial species
Experiment: resazurin cell viability assay (bacterial metabolism/viability)
Protocol: A five species mix of representative oral bacterial species was used to simulate the complex bacterial flora of the oral environment. A bacterial mix comprising Actinomyces viscosus, Lactobacillus casei, Streptococcus oralis, Fusobacteriaum nucleatum and Veillonella parvulal was incubated with the compound under investigation for 1 hour at 37° C., neutralized, washed and stained with 50 μg/ml resazurin solution. When viable bacteria are incubated with resazurin, the blue non-fluorescent dye is reduced by the bacteria to pink fluorescent resorufin. Fluorescence of the test sample is read at 560 nm excitation/590 nm emission and compared to the fluorescence of a standardized mixture of live and dead bacteria to determine the percentage of the initial population that is viable after incubation.
In order to minimize the effects of formula excipients, dilute 1:100 and 1:10 dentifrice slurries of formulations in water were used in the assay. As before, the test compound (as a dilute slurry) was incubated with the bacteria for 1 hour at 37° C., neutralized, washed and stained with 50 μg/ml resazurin solution. The percentage of viable bacteria was then determined.

Substance | % bacteria viable following treatment (aqueous test solutions, incubated 1 hour at 37° C., resazurin 50 μg/ml, fluorescence 560/590 nm) [%] | antibacterial efficacy compared with comparators (in words) (solutions of Example 1, Table 1)
sodium lauryl ether sulfate [0.5 wt. % SLES] | 19.94 | –
zinc coceth sulfate [0.5 wt. % ZCS] | – | significantly more efficacious than surfactant alone or an aqueous solution of 0.8 wt. % total elemental zinc
